Assay results taken from ChEMBL document CHEMBL1133658 (J Med Chem, 2000).

Target: T1, Tubulin alpha chain (Sus scrofa, UniProt P02550)
Experiment: Inhibition of tubulin polymerization interacting at the colchicine binding site

T1 sequence (P02550 whole entry, looked up): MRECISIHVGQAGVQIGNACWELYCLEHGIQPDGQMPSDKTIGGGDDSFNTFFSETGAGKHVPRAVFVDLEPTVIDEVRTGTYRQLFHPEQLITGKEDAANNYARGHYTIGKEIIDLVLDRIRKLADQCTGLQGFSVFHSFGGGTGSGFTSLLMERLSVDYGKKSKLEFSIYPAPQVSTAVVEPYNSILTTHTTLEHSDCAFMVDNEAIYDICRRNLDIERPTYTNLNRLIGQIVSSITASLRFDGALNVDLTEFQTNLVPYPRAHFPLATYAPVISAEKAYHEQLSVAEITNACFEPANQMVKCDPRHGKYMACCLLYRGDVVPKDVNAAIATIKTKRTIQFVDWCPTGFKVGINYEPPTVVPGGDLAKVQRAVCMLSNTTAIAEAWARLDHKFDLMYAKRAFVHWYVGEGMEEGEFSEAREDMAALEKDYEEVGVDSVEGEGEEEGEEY

Row | IC50 | SMILES
1 | 631 nM | Cc1cnc2nc(-c3cccc(F)c3)cc(O)c2c1

Target: T1, Tubulin alpha chain

Row | IC50 | SMILES
2 | 2090 nM | Cc1cnc2nc(-c3ccc4ccccc4c3)cc(O)c2c1
3 | 2820 nM | COc1c(O)cc2c(c1OC)-c1ccc(SC)c(=O)cc1[C@@H](NC(C)=O)CC2C=O (some centres not stated)
4 | 2820 nM | COc1cc2c(c(OC)c1OC)-c1ccc(SC)cc1[C@@H](OC(C)=O)CC2
5 | 1910 nM | Cc1cccc(-c2cc(O)c3ccc(C)nc3n2)c1
6 | 1510 nM | COc1cc2c(c(OC)c1O)-c1ccc(SC)c(=O)cc1[C@@H](NC(C)=O)CC2
7 | 3310 nM | COc1cc2c(c(OC)c1O)-c1ccc(SC)c(=O)cc1[C@@H](NC(=O)CC(C)=O)CC2
8 | 1510 nM | Oc1cc(-c2cccc(Cl)c2)nc2ncccc12
9 | 3390 nM | COc1cc2c(c(OC)c1OC)-c1ccc(SC)c(=O)cc1[C@@H](COC(=O)c1cccc(F)c1)C2
10 | 1410 nM | COC(=O)c1ccc2c(c1)C(NC(C)=O)CCc1cc(OC)c(OC)c(OC)c1-2 (configuration not stated)
11 | 3800 nM | Cc1cnc2nc(-c3sccc3C)cc(O)c2c1
12 | 3090 nM | COc1cc2c(c(OC)c1OC)-c1ccc(SC)cc1[C@H](OC(C)=O)CC2
13 | 2290 nM | COc1cc2c(c(OC)c1OC)-c1ccc(SC)c(=O)cc1[C@@H](NCc1ccc([N+](=O)[O-])cc1)CC2
14 | 575 nM | COc1cccc(-c2cc(O)c3cc4c(cc3n2)OCO4)c1
15 | 794 nM | COc1cccc(-c2cc(O)c3cc(C)cnc3n2)c1
16 | 3630 nM | COc1cc2c(c(OC)c1OC)-c1ccc(SC)c(=O)cc1[C@@H](COC(=O)c1ccccc1F)C2
17 | 2880 nM | Cc1ccc(-c2cc(O)c3c(C)ccnc3n2)cc1
18 | 741 nM | Cc1cc(C)c2c(O)cc(-c3cccc(F)c3)nc2n1
19 | 1510 nM | COc1ccc2c(c1)CC=Cc1cc(OC)c(OC)c(OC)c1-2
20 | 15800 nM | Oc1cc(-c2ccc(F)cc2)nc2ncc(Cl)cc12
21 | 372 nM | Oc1cc(-c2cccc(Cl)c2)nc2cc3c(cc12)OCO3
22 | 1910 nM | COc1ccc2c(c1)CCCc1cc(OC)c(OC)c(OC)c1-2
23 | 18200 nM | COc1ccccc1-c1cc(O)c2cc(C)cnc2n1
24 | 724 nM | COc1cccc(-c2cc(O)c3c(Cl)ccnc3n2)c1

Row | IC50 | SMILES
25 | 5130 nM | Cc1ccc2c(O)cc(-c3ccc4ccccc4c3)nc2n1
26 | 1410 nM | COc1cc2c(c(OC)c1OC)-c1ccc(SC)c(=O)cc1[C@@H](OC(=O)C13CCC(C)(C(=O)O1)C3(C)C)CC2 (some centres not stated)
27 | 1410 nM | COc1cc2c(c(OC)c1OC)-c1ccc(SC)c(=O)cc1[C@@H](NC(=O)CC(C)=O)CC2
28 | 2290 nM | COc1ccc(CN[C@H]2CCc3cc(OC)c(OC)c(OC)c3-c3ccc(SC)c(=O)cc32)c(OC)c1OC
29 | 4790 nM | Cc1ccnc2nc(-c3ccc(Cl)cc3)cc(O)c12
30 | 955 nM | COc1cccc(-c2cc(O)c3cccnc3n2)c1
31 | 2400 nM | COc1cc2c(c(OC)c1OC)-c1ccc(SC)c(=O)cc1[C@@H](NC(=O)C13CCC(C)(C(=O)O1)C3(C)C)CC2 (some centres not stated)
32 | 692 nM | COc1cccc([C@@H]2CC(=O)c3cc4c(cc3N2)OCO4)c1
33 | 4790 nM | CCCC(=O)O[C@@H]1CCc2cc(OC)c(OC)c(OC)c2-c2ccc(SC)cc21
34 | 2690 nM | Cc1cnc2nc(-c3ccc(C)s3)cc(O)c2c1
35 | 10000 nM | Cc1ccc(-c2cc(O)c3c(C)cc(C)nc3n2)cc1
36 | 14100 nM | Oc1cc(-c2ccc3ccccc3c2)nc2ncccc12
37 | 2190 nM | COc1ccc2c(c1)C=CCc1cc(OC)c(OC)c(OC)c1-2
38 | 363 nM | COc1cccc(-c2cc(O)c3cc(N4CCOCC4)ccc3n2)c1
39 | 1510 nM | Cc1ccc2c(O)cc(-c3ccc(Br)s3)nc2n1
40 | 1700 nM | Cc1ccc2c(O)cc(-c3ccc(Cl)s3)nc2n1
41 | 2400 nM | COc1cc2c(c(OC)c1OC)-c1ccc(SC)cc1[C@H](OC(=O)c1cccnc1)CC2
42 | 759 nM | COc1cc2c(c(OC)c1OC)-c1ccc(SC)c(=O)cc1[C@@H](OC(=O)c1cccnc1)CC2
43 | 380 nM | COc1cccc(-c2cc(O)c3cc(N(C)C)ccc3n2)c1
44 | 457 nM | Oc1cc(-c2ccccc2F)nc2ccc(N3CCCC3)cc12
45 | 2510 nM | COc1cc2c(c(OC)c1OC)-c1ccc(SC)c(=O)cc1[C@@H](NCc1ccc(C#N)cc1)CC2
46 | 1700 nM | COc1c(O)cc2c(c1OC)-c1ccc(SC)c(=O)cc1[C@@H](NC(=O)CC(C)=O)CC2
47 | 933 nM | Cc1ccnc2nc(-c3cccc4ccccc34)cc(O)c12

Row | IC50 | SMILES
48 | 11000 nM | Cc1ccc2c(O)cc(-c3ccc(Cl)cc3)nc2n1
49 | 4470 nM | COc1cc2c(c(OC)c1OC)-c1ccc(SC)c(=O)cc1[C@@H](COC(=O)c1ccc(F)cc1)C2
50 | 891 nM | Cc1ccc2c(O)cc(-c3cccc(Cl)c3)nc2n1
51 | 4790 nM | COc1cc2c(c(OC)c1OC)-c1ccc(SC)cc1[C@@H](OC(=O)c1cccnc1)CC2
52 | 2190 nM | Oc1cc(-c2cccs2)nc2cc3c(cc12)OCO3
53 | 525 nM | Oc1cc(-c2cccc(F)c2)nc2cc3c(cc12)OCO3
54 | 2690 nM | COc1cc2c(c(OC)c1OC)-c1ccc(SC)cc1[C@H](OC(=O)c1ccccc1)CC2
55 | 2820 nM | Cc1ccc2c(O)cc(-c3sccc3C)nc2n1
56 | 2000 nM | Cc1cnc2nc(-c3ccc(Cl)cc3)cc(O)c2c1
57 | 1700 nM | Cc1ccc2c(O)cc(-c3ccc(C)s3)nc2n1
58 | 550 nM | Cc1cnc2nc(-c3cccc4ccccc34)cc(O)c2c1
59 | 759 nM | COc1cccc(-c2cc(O)c3ccc(C)nc3n2)c1
60 | 7940 nM | Cc1ccc2c(O)cc(-c3ccsc3)nc2n1
61 | 871 nM | COc1cccc(-c2cc(O)c3c(C)cc(C)nc3n2)c1
62 | 3240 nM | COc1cc2c(c(OC)c1OC)-c1ccc(SC)c(=O)cc1[C@@H](NCc1ccc(F)cc1)CC2
63 | 8710 nM | COc1ccc(-c2cc(O)c3c(C)ccnc3n2)cc1
64 | 3020 nM | COc1cc2c(c(OC)c1OC)-c1ccc(SC)c(=O)cc1[C@@H](COC(=O)c1cccc(C#N)c1)C2
65 | 1820 nM | Cc1ccnc2nc(-c3ccc4ccccc4c3)cc(O)c12
66 | 1410 nM | COc1cccc(-c2cc(O)c3ccccc3n2)c1
67 | 2510 nM | Oc1cc(-c2ccc3ccccc3c2)nc2ncc(Cl)cc12
68 | 1510 nM | COc1cccc(-c2cc(O)c3c(Br)ccnc3n2)c1
69 | 7760 nM | COc1ccc(-c2cc(O)c3cc(C)cnc3n2)cc1
70 | 661 nM | Cc1ccc2c(O)cc(-c3cccc4ccccc34)nc2n1

Row | IC50 | SMILES
71 | 2820 nM | CCCC(=O)O[C@H]1CCc2cc(OC)c(OC)c(OC)c2-c2ccc(SC)cc21
72 | 2340 nM | COc1cccc([C@H]2CC(=O)c3cc4c(cc3N2)OCO4)c1
73 | 18200 nM | Cc1ccnc2nc(-c3ccc(F)cc3)cc(O)c12
74 | 4900 nM | Cc1ccc(-c2cc(O)c3ccc(C)nc3n2)cc1
75 | 724 nM | Cc1cnc2nc(-c3cccc(Cl)c3)cc(O)c2c1
76 | 468 nM | Oc1cccc(-c2cc(O)c3cc4c(cc3n2)OCO4)c1
77 | 1820 nM | COc1cc2c(c(OC)c1OC)-c1ccc(SC)cc1[C@@H](O)C=C2
78 | 4790 nM | Cc1ccc2c(O)cc(-c3cc(C)sc3C)nc2n1
79 | 724 nM | Nc1cccc(-c2cc(O)c3cc4c(cc3n2)OCO4)c1
80 | 3310 nM | Cc1cccc(-c2cc(O)c3cccnc3n2)c1
81 | 776 nM | Cc1cc(C)c2c(O)cc(-c3cccc(Cl)c3)nc2n1
82 | 2400 nM | Cc1ccc(-c2cc(O)c3cc(C)cnc3n2)cc1
83 | 562 nM | COc1cc2c(c(OC)c1OC)-c1ccc(SC)c(=O)cc1[C@@H](OC(=O)c1ccncc1)CC2
84 | 525 nM | Cc1ccc2c(=O)cc(-c3cccc(F)c3)[nH]c2n1
85 | 447 nM | O=C(Oc1cccc(-c2cc(O)c3cc4c(cc3n2)OCO4)c1)c1ccccc1
86 | 1100 nM | Oc1cc(-c2cccc3ccccc23)nc2ncccc12
87 | 1510 nM | Cc1cccc(-c2cc(O)c3cc(C)cnc3n2)c1
88 | 776 nM | Cc1cc(C)c2c(O)cc(-c3cccc4ccccc34)nc2n1
89 | 646 nM | CNc1cccc(-c2cc(O)c3cc4c(cc3n2)OCO4)c1
90 | 6030 nM | Cc1ccc2c(O)cc(-c3cccs3)nc2n1
91 | 813 nM | Oc1cc(-c2cccc(C(F)(F)F)c2)nc2cc3c(cc12)OCO3

Row | SMILES | IC50
92 | COc1ccc2c(c1)C(NC(C)=O)CCc1cc(OC)c(OC)c(OC)c1-2 (configuration not stated) | 1510 nM
